Inhibition and IC50 data for 28 compounds are collected here from patent US8822449B2, “Substituted aminoindanes and analogs thereof, and the pharmaceutical use thereof” (Sanofi, priority 2008, dated 2014).

The first test addresses T1, sodium-proton exchanger of subtype 3 (NHE3) (Homo sapiens, UniProt P48764).
T1 construct: expressed in transfected cells
T1 sequence (P48764 26-834): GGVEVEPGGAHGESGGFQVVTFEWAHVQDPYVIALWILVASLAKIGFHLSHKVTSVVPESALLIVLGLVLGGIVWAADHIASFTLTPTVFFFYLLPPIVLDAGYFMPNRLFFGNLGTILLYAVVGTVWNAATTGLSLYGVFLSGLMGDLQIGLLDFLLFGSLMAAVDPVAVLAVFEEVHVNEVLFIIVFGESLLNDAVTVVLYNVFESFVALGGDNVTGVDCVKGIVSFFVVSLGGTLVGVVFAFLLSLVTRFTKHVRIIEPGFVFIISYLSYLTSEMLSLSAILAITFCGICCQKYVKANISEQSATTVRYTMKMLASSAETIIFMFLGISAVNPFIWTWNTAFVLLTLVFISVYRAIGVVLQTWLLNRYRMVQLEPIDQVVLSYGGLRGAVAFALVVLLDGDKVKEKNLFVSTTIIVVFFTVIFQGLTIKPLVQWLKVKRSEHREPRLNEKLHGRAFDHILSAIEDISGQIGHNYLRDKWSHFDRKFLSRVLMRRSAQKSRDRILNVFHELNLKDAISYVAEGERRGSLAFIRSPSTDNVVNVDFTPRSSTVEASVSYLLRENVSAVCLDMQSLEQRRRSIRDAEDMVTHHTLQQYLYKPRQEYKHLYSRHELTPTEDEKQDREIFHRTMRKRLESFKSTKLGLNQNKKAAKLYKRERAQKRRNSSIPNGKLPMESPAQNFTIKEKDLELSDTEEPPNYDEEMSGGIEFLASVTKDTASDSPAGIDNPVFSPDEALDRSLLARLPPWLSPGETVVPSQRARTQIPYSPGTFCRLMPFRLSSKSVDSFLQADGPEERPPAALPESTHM
In words: Recovery of intracellular pH (pHi) after acidification in LAP1 cells stably expressing NHE3 (BCECF fluorescence, FLIPR). The following applies: LAP1, read-out: Activity range (inhibitory effect on NHE3). It is filed as cell-based.
Consider `CC(=O)Nc1ccccc1OC1c2ccccc2CC1N1CCCC1` (racemic) [Example 635, N-[2-(rac-trans-(1,2)-2-pyrrolidin-1-ylindan-1-yloxy)phenyl]acetamide], for which the inhibition at 10 µM is 20 to 50%.

The same test, now with this note: LAP1 cells stably expressing NHE3; pH recovery after acidification; range 1 is % inhibition at 10 μM; read-out: Activity range (inhibitory effect on NHE3).
Turning to `CSc1ccc(O[C@H]2c3ccccc3CC[C@@H]2N2CCC[C@@H](N)C2)cc1` (racemic) [Example 74, (R)-1-[rac-trans-(1,2)-1-(4-methylsulfanylphenoxy)-1,2,3,4-tetrahydronaphthalen-2-yl]piperidin-3-ylamine], the inhibition at 10 µM is 20 to 50%. With `Cn1ccn(-c2ccc(O[C@H]3c4cc(Cl)cc(Cl)c4C[C@@H]3N3CC[C@@H](O)C3)c(F)c2)c1=O` [Example 329, 1-{4-[trans-(1S,2S)-4,6-dichloro-2-((R)-3-hydroxypyrrolidin-1-yl)indan-1-yloxy]-3-fluorophenyl}-3-methyl-1,3-dihydroimidazol-2-one], the IC50 is less than 1000 nM. With `CS(=O)(=O)c1ccc(O[C@H]2c3ccccc3CC[C@@H]2N2CCOCC2)cc1` (racemic) [Example 508, 4-[rac-trans-(1,2)-1-(4-methanesulfonylphenoxy)-1,2,3,4-tetrahydronaphthalen-2-yl]morpholine], the inhibition at 10 µM is 20 to 50%. With `CS(=O)(=O)c1cc(Cl)c(O[C@H]2c3ccccc3C[C@@H]2N2CCCC2)c(Cl)c1` (racemic) [Example 264, 1-[rac-trans-(1,2)-1-(2,6-dichloro-4-methanesulfonylphenoxy)indan-2-yl]pyrrolidine], the IC50 was 1000 to 10000 nM.

On to `Cc1c(O[C@H]2c3cc(Cl)cc(Cl)c3C[C@@H]2N2CC[C@@H](O)C2)cccc1-n1ccn(C)c1=O` [Example 312, 1-{3-[(1S,2S)-4,6-dichloro-2-((R)-3-hydroxypyrrolidin-1-yl)indan-1-yloxy]-2-methylphenyl}-3-methyl-1,3-dihydroimidazol-2-one], for which the inhibition at 10 µM lay in the range of 20 to 50%. `O=c1[nH]ccn1-c1ccc(O[C@H]2c3cc(Cl)cc(Cl)c3C[C@@H]2N2CC[C@@H](O)C2)c(F)c1` [Example 323, 1-{4-[(1S,2S)-4,6-dichloro-2-((R)-3-hydroxypyrrolidin-1-yl)indan-1-yloxy]-3-fluorophenyl}-1,3-dihydroimidazol-2-one]: the IC50 was less than 1000 nM. Regarding `CS(=O)(=O)c1ccc(O[C@H]2c3cc(Cl)cc(Cl)c3C[C@@H]2N2CC3C[C@H]2CN3)cc1` [Example 209, (S)-2-[trans-(1S,2S)-4,6-dichloro-1-(4-methanesulfonylphenoxy)indan-2-yl]-2,5-diazabicyclo[2.2.1]heptane], the IC50 is less than 1000 nM. Turning to `c1ccc2c(c1)CC[C@H](N1CCOCC1)[C@H]2Oc1cnc2ccccc2c1` (racemic) [Example 400, 3-(rac-trans-(1,2)-2-morpholin-4-yl-1,2,3,4-tetrahydronaphthalen-1-yloxy)quinoline], the inhibition at 10 µM lay in the range of 20 to 50%.

Regarding `N#Cc1ccc(O[C@H]2c3cc(Cl)cc(Cl)c3C[C@@H]2N2CCNCC2)c(F)c1` [Example 456, 4-((1S,2S)-4,6-dichloro-2-piperazin-1-ylindan-1-yloxy)-3-fluorobenzonitrile], the IC50 was less than 1000 nM. The same measure, in the same setting: in the case of `CS(=O)(=O)c1ccc(O[C@H]2c3cc(Cl)cc(Cl)c3C[C@@H]2N2CC[C@@H](N)C2)cc1` [Example 104, (R)-1-[trans-(1S,2S)-4,6-dichloro-1-(4-methanesulfonylphenoxy)indan-2-yl]pyrrolidin-3-ylamine] it was less than 1000 nM. With `Cc1cc(O[C@H]2c3cc(Cl)cc(F)c3C[C@@H]2N2CCNCC2)ccc1S(=O)(=O)C(F)(F)F` (racemic) [Example 290, 1-[rac-trans-(1,2)-6-chloro-4-fluoro-1-(3-methyl-4-trifluoromethanesulfonylphenoxy)indan-2-yl]piperazine], the inhibition at 10 µM is 20 to 50%. For the compound `Cc1nc2cc(O[C@H]3c4cc(Cl)cc(Cl)c4C[C@@H]3N3CC[C@@H](O)C3)ccc2s1` [Example 96, (R)-1-[trans-(1S,2S)-4,6-dichloro-1-(2-methylbenzothiazol-5-yloxy)indan-2-yl]pyrrolidin-3-ol], the inhibition at 10 µM is 20 to 50%. With `COc1cc(Cl)cc(O[C@H]2c3ccccc3CC[C@@H]2N2CCC[C@@H](N)C2)c1` (racemic) [Example 54, (R)-1-[rac-trans-(1,2)-1-(3-chloro-5-methoxyphenoxy)-1,2,3,4-tetrahydronaphthalen-2-yl]piperidin-3-ylamine], the inhibition at 10 µM was 20 to 50%.

`FC(F)(F)CCN[C@@H]1CCCN([C@H]2Cc3c(Cl)cc(Cl)cc3[C@@H]2Oc2ccc(-n3cncn3)cc2)C1` [Example 221, {(R)-1-[trans-(1S,2S)-4,6-dichloro-1-(4-[1,2,4]triazol-1-ylphenoxy)indan-2-yl]piperidin-3-yl}-(3,3,3-trifluoropropyl)amine]: the IC50 was less than 1000 nM. Same read-out and setting: in the case of `Cc1nnc(C)n1-c1ccc(O[C@H]2c3c(Cl)sc(Cl)c3CC[C@@H]2N2CCCC2)cc1` (racemic) [Example 496, 4-[4-(1,3-dichloro-5-pyrrolidin-1-yl-4,5,6,7-tetrahydrobenzo[c]thiophen-4-yloxy)phenyl]-3,5-dimethyl-4H-[1,2,4]triazole] it was 1000 to 10000 nM; in that of `Cc1nnc(C)n1-c1ccc(O[C@H]2c3cc(Cl)cc(F)c3C[C@@H]2N2CC[C@@H](O)C2)c(F)c1` [Example 142, (R)-1-{trans-(1S,2S)-6-chloro-1-[4-(3,5-dimethyl-[1,2,4]triazol-4-yl)-2-fluorophenoxy]-4-fluoroindan-2-yl}pyrrolidin-3-ol], less than 1000 nM; in that of `CN1CC(=O)N(c2ccc(O[C@H]3c4cc(Cl)cc(Cl)c4C[C@@H]3N3CC[C@@H](O)C3)c(Cl)c2)C1=O` [Example 422, 3-{3-chloro-4-[(1S,2S)-4,6-dichloro-2-((R)-3-hydroxypyrrolidin-1-yl)indan-1-yloxy]phenyl}-1-methylimidazolidine-2,4-dione], less than 1000 nM. With `N#Cc1ccc(O[C@H]2c3ccccc3CC[C@@H]2N2CCC[C@H](N)C2)c(F)c1F` (racemic) [Example 528, 4-[rac-trans-(1,2)-2-((S)-3-aminopiperidin-1-yl)-1,2,3,4-tetrahydronaphthalen-1-yloxy]-2,3-difluorobenzonitrile], the IC50 was in the range of 1000 to 10000 nM. `CS(=O)(=O)c1ccc(O[C@H]2c3cc(F)ccc3C[C@@H]2N2CCNCC2)cc1` (racemic) [Example 294, 1-[rac-trans-(1,2)-6-fluoro-1-(4-methanesulfonylphenoxy)indan-2-yl]piperazine]: the IC50 is 1000 to 10000 nM. As to `N#Cc1ccc2cccc(O[C@H]3c4ccccc4CC[C@@H]3N3CCC[C@H](N)C3)c2n1` (racemic) [Example 596, 8-[rac-trans-(1,2)-2-((S)-3-aminopiperidin-1-yl)-1,2,3,4-tetrahydronaphthalen-1-yloxy]quinoline-2-carbonitrile], the IC50 fell in the range of 1000 to 10000 nM. Regarding `Cc1nnc(C)n1-c1ccc(O[C@H]2c3cc(Cl)cc(Cl)c3C[C@@H]2N2CCCNCC2)cc1` [Example 347, 1-{trans-(1S,2S)-4,6-dichloro-1-[4-(3,5-dimethyl-[1,2,4]triazol-4-yl)phenoxy]indan-2-yl}-[1,4]diazepane], the IC50 is less than 1000 nM. The same measure, in the same setting: in the case of `COC(=O)c1ccc(O[C@H]2c3ccccc3C[C@@H]2N2CCCC2)cc1` (racemic) [Example 467, 4-(rac-trans-(1,2)-2-pyrrolidin-1-ylindan-1-yloxy)benzoic acid methyl ester] it was 1000 to 10000 nM; in that of `Cc1nc2cc(O[C@@H]3c4ccccc4C[C@H]3N3CCC[C@@H](N)C3)ccc2s1` (racemic) [Example 47, (R)-1-[rac-trans-(1,2)-1-(2-methylbenzothiazol-5-yloxy)indan-2-yl]piperidin-3-ylamine], less than 1000 nM; in that of `CN(C)C(=O)Cc1ccc(O[C@H]2c3ccccc3C[C@@H]2N2CCCC2)cc1` (racemic) [Example 634, N,N-dimethyl-2-[4-(rac-trans-(1,2)-2-pyrrolidin-1-ylindan-1-yloxy)phenyl]acetamide], 1000 to 10000 nM. For the compound `NS(=O)(=O)c1ccc(O[C@H]2c3ccccc3C[C@@H]2N2CCCC(O)C2)c(Cl)c1Cl` (mixture of isomers) [Example 361, 2,3-dichloro-4-[trans-(1S,2S)-2-(3-hydroxy-piperidin-1-yl)indan-1-yloxy]benzenesulfonamide], the IC50 lay in the range of 1000 to 10000 nM. For `CS(=O)(=O)c1ccc(O[C@H]2c3cc(Cl)cc(Cl)c3C[C@@H]2N2CCCN(CCO)CC2)cc1` [Example 385, 2-{4-[trans-(1S,2S)-4,6-dichloro-1-(4-methanesulfonylphenoxy)indan-2-yl]-[1,4]diazepan-1-yl}-ethanol], the IC50 was less than 1000 nM. Turning to `O=c1ocnn1-c1ccc(O[C@H]2c3cc(Cl)cc(Cl)c3C[C@@H]2N2CC[C@@H](O)C2)cc1` [Example 735, 3-{4-[trans-(1S,2S)-4,6-Dichloro-2-((R)-3-hydroxy-pyrrolidin-1-yl)-indan-1-yloxy]-phenyl}-3H-[1,3,4]oxadiazol-2-one], the IC50 lay in the range of 1000 to 10000 nM.
